Laboratory results published in ChEMBL document CHEMBL6074654, “Inhibitors targeting the PWWP domain-containing proteins” (Eur J Med Chem, 2024).

Legend:
[1] = molecular target: Histone-lysine N-methyltransferase, H3 lysine-36 specific (Homo sapiens, UniProt Q96L73); test: Inhibition of NSD1-SET (unknown origin)
[2] = molecular target: DNA (cytosine-5)-methyltransferase 3A (Homo sapiens, UniProt Q9Y6K1); test: Inhibition of DNMT3A (unknown origin)
[3] = molecular target: DNA (cytosine-5)-methyltransferase 1 (Homo sapiens, UniProt P26358); test: Inhibition of DNMT1 (unknown origin)
U2OS = test: Antiproliferative activity against human U2OS cells
[4] = molecular target: Protein cereblon/Histone-lysine N-methyltransferase NSD2 (Homo sapiens, UniProt O96028+Q96SW2); test: PROTAC activity at CRBN/NSD2 in human VCaP cells assessed as induction of NSD2 degradation incubated for 24 hrs by immunoblot analysis; format: cell-based
Chain of Protein cereblon/Histone-lysine N-methyltransferase NSD2 (Q96SW2 whole entry, one chain of several, the tested form may be a part): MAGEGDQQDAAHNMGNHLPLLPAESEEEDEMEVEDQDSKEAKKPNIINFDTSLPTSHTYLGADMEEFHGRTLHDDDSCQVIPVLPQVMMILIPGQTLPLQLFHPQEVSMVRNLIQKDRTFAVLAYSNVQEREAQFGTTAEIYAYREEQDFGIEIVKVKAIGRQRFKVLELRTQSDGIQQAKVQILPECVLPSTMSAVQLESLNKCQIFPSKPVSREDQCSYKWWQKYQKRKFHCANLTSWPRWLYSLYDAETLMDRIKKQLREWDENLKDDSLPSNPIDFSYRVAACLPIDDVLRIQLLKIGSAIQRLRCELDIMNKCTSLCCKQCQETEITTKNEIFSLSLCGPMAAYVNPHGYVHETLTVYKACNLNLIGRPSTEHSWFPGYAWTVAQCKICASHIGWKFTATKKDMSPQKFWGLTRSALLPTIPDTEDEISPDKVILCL

[5] = molecular target: T1, Histone-lysine N-methyltransferase NSD2 (Homo sapiens, UniProt O96028); test: Inhibition of NSD2-SET domain (unknown origin)
T1 sequence (O96028 whole entry): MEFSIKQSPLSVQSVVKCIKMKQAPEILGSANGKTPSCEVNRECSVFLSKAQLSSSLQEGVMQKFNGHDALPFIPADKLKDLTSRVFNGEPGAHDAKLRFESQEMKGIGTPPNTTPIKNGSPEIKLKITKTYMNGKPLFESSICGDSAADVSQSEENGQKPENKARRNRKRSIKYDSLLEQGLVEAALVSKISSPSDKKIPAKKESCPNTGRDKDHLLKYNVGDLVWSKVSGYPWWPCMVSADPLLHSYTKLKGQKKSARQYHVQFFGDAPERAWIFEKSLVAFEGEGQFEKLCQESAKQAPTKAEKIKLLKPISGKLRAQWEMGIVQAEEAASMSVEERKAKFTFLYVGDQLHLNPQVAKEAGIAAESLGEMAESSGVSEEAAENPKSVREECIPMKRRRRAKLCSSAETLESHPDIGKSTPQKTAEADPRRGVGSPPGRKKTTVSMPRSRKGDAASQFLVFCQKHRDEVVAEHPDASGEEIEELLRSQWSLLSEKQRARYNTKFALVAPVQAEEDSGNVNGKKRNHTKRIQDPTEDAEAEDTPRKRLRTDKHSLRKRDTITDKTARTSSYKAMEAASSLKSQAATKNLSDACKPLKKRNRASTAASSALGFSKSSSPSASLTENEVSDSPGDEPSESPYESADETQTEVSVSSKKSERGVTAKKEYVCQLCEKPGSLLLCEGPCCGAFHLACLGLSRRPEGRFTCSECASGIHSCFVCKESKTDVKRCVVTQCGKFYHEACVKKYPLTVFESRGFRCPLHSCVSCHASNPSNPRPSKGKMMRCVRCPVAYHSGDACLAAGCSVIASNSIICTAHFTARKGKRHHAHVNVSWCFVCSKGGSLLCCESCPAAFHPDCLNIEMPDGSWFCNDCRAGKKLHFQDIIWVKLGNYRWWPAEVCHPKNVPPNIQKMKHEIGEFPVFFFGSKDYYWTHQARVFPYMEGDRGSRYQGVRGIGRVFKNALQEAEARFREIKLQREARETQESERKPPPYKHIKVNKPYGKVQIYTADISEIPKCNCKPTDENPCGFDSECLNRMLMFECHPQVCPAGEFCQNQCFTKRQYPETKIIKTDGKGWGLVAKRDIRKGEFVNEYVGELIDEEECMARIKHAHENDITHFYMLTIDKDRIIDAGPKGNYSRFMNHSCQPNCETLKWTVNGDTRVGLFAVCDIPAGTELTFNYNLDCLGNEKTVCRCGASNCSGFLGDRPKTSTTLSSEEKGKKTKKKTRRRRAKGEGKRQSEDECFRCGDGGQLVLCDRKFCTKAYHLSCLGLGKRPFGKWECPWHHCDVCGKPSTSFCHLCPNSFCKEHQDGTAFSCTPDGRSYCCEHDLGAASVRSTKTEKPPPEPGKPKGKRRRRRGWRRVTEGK

Chain of DNA (cytosine-5)-methyltransferase 3A (Q9Y6K1 whole entry, looked up): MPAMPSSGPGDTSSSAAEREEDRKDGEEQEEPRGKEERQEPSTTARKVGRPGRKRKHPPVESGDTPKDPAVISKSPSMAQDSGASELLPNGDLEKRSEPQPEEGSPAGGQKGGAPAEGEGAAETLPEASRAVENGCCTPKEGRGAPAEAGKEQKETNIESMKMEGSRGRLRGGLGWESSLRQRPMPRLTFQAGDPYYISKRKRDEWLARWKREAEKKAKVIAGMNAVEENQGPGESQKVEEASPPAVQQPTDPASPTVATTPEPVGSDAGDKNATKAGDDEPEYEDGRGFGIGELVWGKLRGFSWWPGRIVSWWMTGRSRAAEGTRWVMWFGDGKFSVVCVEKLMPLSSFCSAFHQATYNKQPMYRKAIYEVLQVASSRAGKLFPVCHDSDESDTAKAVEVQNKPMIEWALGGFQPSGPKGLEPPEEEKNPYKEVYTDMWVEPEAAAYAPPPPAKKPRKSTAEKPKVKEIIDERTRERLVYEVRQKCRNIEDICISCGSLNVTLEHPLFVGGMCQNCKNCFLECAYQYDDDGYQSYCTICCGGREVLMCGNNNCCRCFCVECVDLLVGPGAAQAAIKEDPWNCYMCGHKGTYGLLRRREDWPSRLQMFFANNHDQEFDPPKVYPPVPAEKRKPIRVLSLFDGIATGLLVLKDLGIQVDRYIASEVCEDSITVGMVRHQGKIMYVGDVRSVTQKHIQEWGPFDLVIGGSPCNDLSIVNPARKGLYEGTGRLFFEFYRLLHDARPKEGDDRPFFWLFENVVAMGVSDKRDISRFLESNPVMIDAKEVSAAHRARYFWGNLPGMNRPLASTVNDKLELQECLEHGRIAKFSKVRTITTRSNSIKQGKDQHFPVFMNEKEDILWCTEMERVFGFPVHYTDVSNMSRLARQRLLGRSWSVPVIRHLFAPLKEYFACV
Chain of Histone-lysine N-methyltransferase, H3 lysine-36 specific (Q96L73 whole entry): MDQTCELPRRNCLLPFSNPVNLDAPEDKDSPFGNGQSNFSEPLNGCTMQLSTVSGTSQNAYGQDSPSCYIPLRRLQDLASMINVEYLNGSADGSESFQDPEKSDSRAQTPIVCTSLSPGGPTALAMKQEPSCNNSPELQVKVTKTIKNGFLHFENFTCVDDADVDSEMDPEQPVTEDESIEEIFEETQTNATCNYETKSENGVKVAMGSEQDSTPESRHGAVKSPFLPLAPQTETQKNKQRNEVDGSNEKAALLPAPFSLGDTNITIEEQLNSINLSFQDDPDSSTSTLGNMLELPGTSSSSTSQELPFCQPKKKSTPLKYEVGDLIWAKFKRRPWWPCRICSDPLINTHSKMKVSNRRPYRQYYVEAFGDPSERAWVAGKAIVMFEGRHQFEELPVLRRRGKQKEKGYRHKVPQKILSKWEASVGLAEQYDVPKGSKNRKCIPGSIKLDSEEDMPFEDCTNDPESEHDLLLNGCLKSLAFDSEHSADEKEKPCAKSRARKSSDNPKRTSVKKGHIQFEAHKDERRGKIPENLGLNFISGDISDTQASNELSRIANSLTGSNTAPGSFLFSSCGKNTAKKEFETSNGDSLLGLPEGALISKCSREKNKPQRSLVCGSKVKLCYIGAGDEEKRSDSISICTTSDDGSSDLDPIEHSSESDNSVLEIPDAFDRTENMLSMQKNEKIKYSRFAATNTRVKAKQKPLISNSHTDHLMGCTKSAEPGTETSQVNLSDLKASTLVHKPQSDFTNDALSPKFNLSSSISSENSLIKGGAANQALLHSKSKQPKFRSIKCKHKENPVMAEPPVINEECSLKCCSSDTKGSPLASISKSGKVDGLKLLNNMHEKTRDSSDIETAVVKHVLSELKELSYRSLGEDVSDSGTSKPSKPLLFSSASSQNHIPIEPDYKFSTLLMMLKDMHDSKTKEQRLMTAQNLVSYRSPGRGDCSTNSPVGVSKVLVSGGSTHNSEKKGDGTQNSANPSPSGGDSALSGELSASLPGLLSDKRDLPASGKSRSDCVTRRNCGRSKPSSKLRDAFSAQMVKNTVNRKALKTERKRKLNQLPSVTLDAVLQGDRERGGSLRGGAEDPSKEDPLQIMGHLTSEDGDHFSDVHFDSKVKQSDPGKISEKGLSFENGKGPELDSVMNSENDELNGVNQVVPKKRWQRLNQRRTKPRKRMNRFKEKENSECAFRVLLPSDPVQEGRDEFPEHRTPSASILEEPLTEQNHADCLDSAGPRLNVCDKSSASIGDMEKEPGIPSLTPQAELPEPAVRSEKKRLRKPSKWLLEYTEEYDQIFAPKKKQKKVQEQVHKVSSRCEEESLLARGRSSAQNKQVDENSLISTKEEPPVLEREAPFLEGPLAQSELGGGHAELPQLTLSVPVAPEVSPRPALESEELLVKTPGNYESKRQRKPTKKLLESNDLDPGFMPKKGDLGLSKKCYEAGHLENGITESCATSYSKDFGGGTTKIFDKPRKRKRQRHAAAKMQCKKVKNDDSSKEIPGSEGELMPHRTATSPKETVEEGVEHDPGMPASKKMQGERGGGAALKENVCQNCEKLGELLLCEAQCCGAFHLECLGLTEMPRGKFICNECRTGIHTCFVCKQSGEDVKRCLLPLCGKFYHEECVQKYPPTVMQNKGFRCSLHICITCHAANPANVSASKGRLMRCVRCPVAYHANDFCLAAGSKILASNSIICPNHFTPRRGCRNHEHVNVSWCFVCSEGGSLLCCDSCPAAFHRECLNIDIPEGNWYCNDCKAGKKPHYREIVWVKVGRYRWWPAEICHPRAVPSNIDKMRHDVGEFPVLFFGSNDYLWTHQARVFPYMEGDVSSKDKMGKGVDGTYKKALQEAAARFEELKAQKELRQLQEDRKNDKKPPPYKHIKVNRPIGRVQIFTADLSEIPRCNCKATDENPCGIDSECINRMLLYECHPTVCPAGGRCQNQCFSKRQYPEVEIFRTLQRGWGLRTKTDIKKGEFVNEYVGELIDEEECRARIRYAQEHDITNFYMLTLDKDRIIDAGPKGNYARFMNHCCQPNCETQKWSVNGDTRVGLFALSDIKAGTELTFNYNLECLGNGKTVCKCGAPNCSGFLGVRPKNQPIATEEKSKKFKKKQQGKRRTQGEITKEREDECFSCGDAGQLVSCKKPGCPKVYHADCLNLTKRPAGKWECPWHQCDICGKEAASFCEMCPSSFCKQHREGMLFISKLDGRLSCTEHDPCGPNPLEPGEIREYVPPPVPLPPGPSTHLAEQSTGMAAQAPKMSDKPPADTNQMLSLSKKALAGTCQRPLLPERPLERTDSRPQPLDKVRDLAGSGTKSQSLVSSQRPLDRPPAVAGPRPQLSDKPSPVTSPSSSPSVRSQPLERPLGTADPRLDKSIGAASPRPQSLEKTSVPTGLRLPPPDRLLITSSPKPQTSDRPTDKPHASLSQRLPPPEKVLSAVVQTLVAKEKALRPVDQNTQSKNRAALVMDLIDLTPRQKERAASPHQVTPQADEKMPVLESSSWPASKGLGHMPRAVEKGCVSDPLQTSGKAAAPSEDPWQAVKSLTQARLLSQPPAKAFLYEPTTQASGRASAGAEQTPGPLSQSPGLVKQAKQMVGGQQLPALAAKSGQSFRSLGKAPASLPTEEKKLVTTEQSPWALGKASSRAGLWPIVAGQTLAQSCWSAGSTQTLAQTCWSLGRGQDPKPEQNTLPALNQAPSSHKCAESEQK

IC50 [2] [µM] | SMILES | IC50 [1] [µM] | also measured
 | CC(C)C[C@H]1C(=O)N2CCCC2[C@]2(O)O[C@](NC(=O)[C@@H]3C=C4c5cccc6[nH]cc(c56)CC4N(C)C3)(C(C)C)C(=O)N12 (some centres not stated) | 4.9 | 
 | Cc1cc(/C=C/c2ccc3cc(N(C)C)ccc3[n+]2C)c(C)n1-c1ccccc1 | 2.6 | 
36 | COc1ccc(Cl)cc1C(=O)NCCc1ccc(O)cc1 |  | 
 | O=C(O)c1ccccc1-c1c2cc(I)c(=O)c(I)c-2oc2c(I)c(O)c(I)cc12 | 0.34 | 
8.2 | CCN(CC)CCNC(=O)c1ccc(NCCCCCCCCCCCCN2C(=O)c3ccccc3C2=O)cc1 |  | IC50 [3]: 4.9 µM
0.3 | c1ccc2c(NCCNc3ncnc4cc(OCC5CCN(CCNc6ccnc7ccccc67)CC5)ccc34)cccc2c1 |  | IC50 [3]: 20 µM
 | O=C1COc2cc(C(=O)N(Cc3ccc(C(=O)Nc4ccncn4)cc3)C3CC3)ccc2N1 |  | IC50 (U2OS): 1.2 µM
 | N=C(N)NCCC[C@H](N)C(=O)NCCCCCCNC(=O)c1ccc(NC(=O)c2ccc(CN(C(=O)c3ccc4c(c3)OCC(=O)N4)C3CC3)cc2)cc1 |  | DC50 [4]: 1.2 µM
1.6 | Oc1cc(/C=N/Nc2nc3ccccc3s2)cc(O)c1O |  | 
 | CCCN[C@@H](CC[C@H](N)C(=O)O)C[C@@H]1O[C@@H](n2cnc3c(N)ncnc32)[C@H](O)[C@@H]1O |  | IC50 [5]: 3.3 µM
3.2 | O=C1C=CC(=O)N1CCc1c[nH]c2ccccc12 |  | IC50 [3]: 19 µM
28 | O=C(O)C(Cc1c[nH]c2ccccc12)N1C(=O)C=CC1=O (configuration not stated) |  | 
 | CN1C[C@H](C(=O)N[C@]2(C)C[C@@]3(O)C4CCCN4C(=O)[C@H](Cc4ccccc4)N3C2=O)C=C2c3cccc4[nH]cc(c34)C[C@H]21 (some centres not stated) | 5.9 | 
 | C[C@H]1COC2=C1C(=O)C(=O)c1c2ccc2c1CCCC2(C)C [CRYPTOTANSHINONE] | 3.5 | 
 | O=C1C=CC(=O)c2ccccc21 [NAPHTHOQUINONE] | 2 | 
 | CC1=CC(=O)c2c(O)cccc2C1=O [PLUMBAGIN] | 5.7 | 
 | COc1cc(NC(C)CCCN)c2ncccc2c1 (configuration not stated) [PRIMAQUINE] | 1.8 | 
 | Cc1coc2c1C(=O)C(=O)c1c-2ccc2c1CCCC2(C)C [TANSHINONE IIA] | 1.4 | 
 | Cc1coc2c1C(=O)C(=O)c1c-2ccc2c(C)cccc12 [TANSHINONE I] | 3.1 | 
